Laboratory results from publication PMC7038139, “Novel Peptide CM 7 Targeted c-Met with Antitumor Activity” (Molecules, 2020).
“Also recorded” adds a separate entry of the source.

Columns and labels:
MKN-45 cells = assay: Cell proliferation assay, MKN-45; format: cell-based, Human; settings: Crizotinib 40 nM, positive control; 4 days
Protocol: (§1) Human gastric cancer cell line MKN-45 cells were from the Chinese Academy of Medical Sciences, Beijing, China. Human gastric cancer cell line MKN-28 cells, the human glioma cell line U87 cells, and MDCK cells were obtained from the American Type Culture Collection (ATCC). The MKN-45 and MKN-28 cells were grown under a humidified atmosphere of 5% CO2 at 37 °C in RPMI 1640 medium (Biological Industries, Israel), supplemented with 10% fetal bovine serum (FBS, Biological Industries, Israel), 2 mmol/L L-glutamine (Gibco, Life Technologies, Grand Island, NY, USA), 100 U/mL penicillin, and 100 μg/mL streptomycin (Invitrogen, Carlsbad, CA, USA). MDCK and U87 cells were cultured under a humidified atmosphere of 5% CO2 at 37 °C in Dulbecco’s modified Eagle’s medium (DMEM) (Gibco, Life Technologies, Grand Island, NY, USA), supplemented with 10% FBS, 2 mmol/L L-glutamine (Gibco, Life Technologies, Grand Island, NY, USA), 100 U/mL penicillin, and 100 μg/mL streptomycin (Invitrogen, Carlsbad, CA, USA).
(§2) As described in the literature, MKN-45, MKN-28, and U87 cells were seeded into 48-well culture plates (6500 cells/well) and cultured overnight. […] After 4 days, the cells were trypsinized and counted by a cell counter. […]

U87 cells = assay: Cell proliferation assay, U87 (HGF-stimulated); format: cell-based, human; settings: Crizotinib 40 nM, positive control; 20 ng/mL HGF; 4 days
Protocol: as §1, §2

MKN-28 cells = assay: Cell proliferation assay, MKN-28; format: cell-based, Human; settings: Crizotinib 40 nM, positive control; 4 days
Protocol: as §1, §2

[1] = system: c-Met-positive MKN-45 cells; assay: Flow cytometry binding to c-Met-positive MKN-45 cells; parameters: species or system Human; settings: 1 μM, 1 h, room temperature
Protocol: as §1
(§3) A flow cytometry assay was used to evaluate the conjugation and affinity of the newly designed peptides CM 7, CM 14, or FITC alone to c-Met-positive MKN-45 cells and c-Met-negative MKN-28 cells. Briefly, MKN-45 and MKN-28 cells were detached by 0.25% trypsin and the final cell concentration was adjusted to 3 × 10^6 cells/mL. […]

[2] = system: c-Met-positive MKN-45 cells; assay: Confocal microscope imaging of binding to MKN-45 cells; parameters: species or system Human; settings: MKN-45 cells (fixed); 1 μM, 1 h, room temperature
Protocol: as §1
(§4) MKN-45 and MKN-28 cells were plated separately in a glass-bottom cell culture dish (NEST) with serum-free media overnight. The next day, cells were fixed with 4% paraformaldehyde for 20 min at room temperature. […]

[3] = system: c-Met-negative MKN-28 cells; assay: Flow cytometry binding to c-Met-negative MKN-28 cells; parameters: species or system Human; settings: 1 μM, 1 h, room temperature
Protocol: as §1, §3

[4] = system: c-Met-negative MKN-28 cells; assay: Confocal microscope imaging of binding to MKN-28 cells; parameters: species or system Human; settings: MKN-28 cells (fixed); 1 μM, 1 h, room temperature
Protocol: as §1, §4

SMILES	Inhibition of cell proliferation (MKN-45 cells)	Inhibition of cell proliferation (U87 cells)	Inhibition of cell proliferation (MKN-28 cells)	Binding by flow cytometry (in words) [1]	Binding / fluorescent signal by confocal imaging [2]	Binding by flow cytometry (in words) [3]	Binding / fluorescent signal by confocal imaging [4]
C[C@@H](Oc1cc(-c2cnn(C3CCNCC3)c2)cnc1N)c1c(Cl)ccc(F)c1Cl [Crizotinib, reference compound]	significantly inhibit	significantly inhibit	significantly inhibit	–	–	–	–
O=C1OC2(c3ccc(O)cc3Oc3cc(O)ccc32)c2ccc(N=C=S)cc21 [FITC, Fluorescein isothiocyanate isomer]	–	–	–	hardly combined	could not bind to MKN-45 or MKN-28 cells	hardly combined	could not bind to MKN-45 or MKN-28 cells; also recorded: did not show any fluorescent signals
